From article PMC11596536, “Unveiling the Anticancer Potential of a New Ciprofloxacin-Chalcone Hybrid as an Inhibitor of Topoisomerases I & II and Apoptotic Inducer” (Molecules, 2024)

Molecular target: T1, Topoisomerase I (Homo sapiens, UniProt P11387)
T1 construct: gene TOP1
T1 sequence (P11387 2-765): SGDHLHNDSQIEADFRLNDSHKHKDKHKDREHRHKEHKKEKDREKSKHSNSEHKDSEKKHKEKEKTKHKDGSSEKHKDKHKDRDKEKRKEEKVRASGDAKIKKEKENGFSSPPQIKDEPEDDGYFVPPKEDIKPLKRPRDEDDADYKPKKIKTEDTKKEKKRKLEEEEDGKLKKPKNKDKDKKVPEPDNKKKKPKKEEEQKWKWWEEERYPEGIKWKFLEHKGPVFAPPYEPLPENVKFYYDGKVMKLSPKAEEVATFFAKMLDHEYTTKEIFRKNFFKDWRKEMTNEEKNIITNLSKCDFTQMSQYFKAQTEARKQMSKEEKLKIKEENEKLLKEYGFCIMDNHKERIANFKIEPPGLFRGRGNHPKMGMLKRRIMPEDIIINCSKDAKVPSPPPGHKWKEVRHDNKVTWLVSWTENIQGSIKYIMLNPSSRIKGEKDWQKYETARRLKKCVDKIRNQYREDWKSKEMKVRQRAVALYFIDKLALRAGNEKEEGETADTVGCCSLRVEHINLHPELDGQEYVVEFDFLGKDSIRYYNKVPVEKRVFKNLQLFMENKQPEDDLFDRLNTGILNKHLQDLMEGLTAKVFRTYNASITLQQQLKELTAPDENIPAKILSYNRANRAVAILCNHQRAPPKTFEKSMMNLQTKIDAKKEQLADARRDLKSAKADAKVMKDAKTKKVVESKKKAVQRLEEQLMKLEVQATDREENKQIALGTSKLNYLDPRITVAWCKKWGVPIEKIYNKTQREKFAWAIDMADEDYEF
Test: Topo I DNA relaxation assay (commercial kit), agarose gel electrophoresis
Format: biochemical

`O=C(/C=C/c1ccc(Cl)cc1)c1ccc(NC(=O)N2CCN(c3cc4c(cc3F)c(=O)c(C(=O)O)cn4C3CC3)CC2)cc1` [compound 2, 7-(4-((4-(3-(4-Chlorophenyl)acryloyl)phenyl)carbamoyl)piperazin-1-yl)-1-cyclopropyl-6-fluoro-4-oxo-1,4-dihydroquinoline-3-carboxylic acid] was tested, and the IC50 was 37.5 µM.
